Compound `COc1ccccc1-c1ccc(CC(=O)Nc2n[nH]c3c2CCC3)cc1` [Example 1.4] has a melting point of 150 °C. `CC(=O)c1cccc(-c2ccc(CC(=O)Nc3n[nH]c4c3CCC4)cc2)c1` [Example 1.7] gave a melting point of 150 °C. Work on `O=C(Cc1ccc(-c2ccccc2F)cc1)Nc1n[nH]c2c1CCC2` [Example 1.3] yielded a melting point of 179 to 181 °C. `COc1cccc(-c2ccc(CC(=O)Nc3n[nH]c4c3CCC4)cc2)c1` [Example 1.5] gave a melting point of 110 to 114 °C. With `O=C(Cc1ccc(-c2ccc(F)cc2)cc1)Nc1n[nH]c2c1CCC2` [Example 1.2] the melting point was 161 to 163 °C. `O=C(Cc1ccc(-c2cccc(F)c2)cc1)Nc1n[nH]c2c1CCC2` [Example 1.0, 2-(3′-Fluoro-biphenyl-4-yl)-N-(1,4,5,6-tetrahydro-cyclopentapyrazol-3-yl)-acetamide] gave a melting point of 180 to 181 °C. `COc1ccc(-c2ccc(CC(=O)Nc3n[nH]c4c3CCC4)cc2)cc1` [Example 1.6] gave a melting point of 168 to 172 °C. Compound `CC(=O)c1ccc(-c2ccc(CC(=O)Nc3n[nH]c4c3CCC4)cc2)cc1` [Example 1.8] has a melting point of 112 to 114 °C.
